# In US11957671B2, “Benzodioxane modulators of leukotriene A4 hydrolase (LTA4H) for prevention and treatment of aging-associated diseases” (Alkahest, Inc., priority 2021, dated 2024):
# Assays:
# [1] = system: hippocampal neurons of aged C57BL/6 mice; assay: Single cell RNA sequencing of NeuN+ hippocampal nuclei (CA1, DG); type: in vivo, mouse
# Description: Aged C57BL/6 mice (21 months of age) were treated for 1 month bid po with vehicle, 1 mg/kg Compound 1, or 2.5 mg/kg SC57461A (n=3 mice per treatment group). NucSeq For Mouse Brain Tissue protocol from 10× Genomics was used to isolate mouse hippocampus nuclei. Approximately 65 mg of brain tissue were used per treatment. Nonidet P40 was used to lyse cell walls and isolated nuclei were stained with Draq5 and NeuN antibodies for FACS sorting. Approximately 5,000 nuclei were collected for each sample. Eight samples were collected for each treatment for a total of 40,000 nuclei per treatment. These samples were prepped for sequencing using the 10× Genomics Chromium Next GEM kit.
# GO terms are generated using the g:Profiler Web server (https://bitt.cs.ut.ee/gprofiler) to analyze differential regulated gene lists. Reported are the top 20 gene ontology (GO terms) terms from the biological process category, sorted by significance as determined by P-value. This list was filtered to report significant GO terms that include less than 1000 genes.
# [2] = system: aged mice; assay: CA1 synapse density by histology; type: in vivo, mouse; conditions: preliminary data, pre- and post-synaptic protein staining
# [3] = system: aged wild type (WT; C57BL/6) mice; assay: qPCR of hippocampal gene expression; type: in vivo, mouse
# Text: Brains were collected following saline perfusion and separated by mid-sagittal slice with one-half dissected into hippocampus and cortex and then snap frozen on dry ice. RNA was isolated from brain tissue using the RNAeasy Qiagen Kit according to the manufacturer's instruction, briefly, tissue was homogenized using an Omni Bead Ruptor in RLT buffer, RNA was bound to RNA isolation column, washed and eluted. Contaminating DNA was removed by DNAse digestion and cDNA was generated using the Life Technologies SuperScript III Kit. A master mix for qPCR was made using the appropriate forward and reverse primers, and SYBR green reagent or TaqMan reagent. The reaction was run on a Life Technologies QuantStudio Real-Time PCR System and analyzed using the std ddCT protocol on the QuantStudio6 software.
# (§1) Three independent cohorts of aged wild type (WT; C57BL/6) mice between twenty to twenty-two months of age (20-22 mo) were homogenized into two (2) groups by body weight, total distance travelled in the open field test, and average velocity in the open field test. Group 1 was administered vehicle control PO daily. Group 2 was administered 10 mg/kg of the LTA4H inhibitor Compound 1 PO daily. Both groups were dosed for either 10 days or 4 weeks daily. Behavioral assays were run during the last week of dosing and animals were sacrificed at the end of the study for histological and molecular assays.
# [4] = system: Notch3R169C mice; assay: CADASIL transgenic mouse model Notch3R169C, 4 months dosing (Example 24); type: in vivo; conditions: 1 mg/kg PO BID 4 months
# Description: Notch3^R169C mice (5-month-old) were treated PO BID with either vehicle or Compound 1 (1 mg/kg) for 4 months and littermate WT controls were treated with vehicle for 4 months. Prior to sacrifice, syringes were prepped with 7.5 μL of 1000 U/mL heparin. To increase LTB4 plasma levels, whole blood was stimulated with calcimycin prior to generation of plasma. First, 100 μL of 10 mM calcimycin (Sigma #C7522) in DMSO was diluted into 10 mL of PBS and sonicated for 10 minutes at 37° C. In a 96 well polystyrene plate (Corning 354657), 160 μL of mouse whole blood was collected for each animal and incubated for 15 minutes in a 37° C./5% CO2 (Panasonic MCO-230AICUV-PA). Next, 40 μL of the 100 μM calcimycin working solution was added to each well and incubated again for 30 minutes at 37° C./5% CO2. After incubation, the plates were centrifuged for 10 minutes at 4° C. at 1500 rpm. Plasma was diluted 1:10 and analyzed for LTB4 using LTB4 ELISA Kit (Enzo Life Sciences, ADI-901-068) in duplicate following the included kit protocol. The final readings were collected on a BMG LABTECH CLARIOstar plate reader at 405 nm. Brain tissue was dissected for cortex. One third of the cortex was homogenized in RIPA buffer (EMD Millipore 20-188) using an Omni BeadRuptor 24. Lysates were centrifuged for 10 mins at 10,000 g at 4° C. to collect the supernatant. Protein concentration was determined by BCA (Thermo Fisher 23225) and then diluted in PBS to approximately 10 mg/ml. Samples were sent to Eve Technologies for analysis.
# [5] = Body weight of aged mice; type: in vivo, mouse
# Description: as §1
# [6] = system: aged wild type (WT; C57BL/6) mice; assay: Iba-1 histology in hippocampus; type: in vivo, mouse; conditions: 4 weeks of dosing
# Description: Brains were collected following saline perfusion and separated by mid-sagittal slice with one-half drop fixed in freshly prepared 4% PFA. PFA was changed to 30% sucrose 24-48 hours later. A second change to 30% sucrose occurred 24 hours later. Brain tissue was sectioned or lysed and analyzed for GFAP, AQP4, or IBA1 by standard histological methods. Images were acquired using a confocal microscope or Axioscan slide scanner.
# as §1
# [7] = system: Male C57BL/6 mice aged 20-21 months; assay: Example 15: gene expression and histology, Compound 1 versus SC-57461A; type: in vivo, mouse; conditions: Compound 1 1 mg/kg, SC-57461A 2.5 mg/kg PO bid one month
# Description: Male C57BL/6 mice aged 20-21 months are treated with Vehicle, Compound 1, or SC-57461A commercially available LTA4H inhibitor. The mice are dosed with Compound 1 at 1 mg/kg or SC-57461A at 2.5 mg/kg PO bid for one month. Mice are anesthetized and blood and tissues are collected for further analysis. Blood is collected via cardiac puncture in syringes pre-filled with Heparin. Brains are collected following ACSF perfusion and processed for single cell RNA sequencing of either labeled endothelial cells (experiment 1) or NeuN-positive neuronal nuclei (experiment 2). In a+ separate cohort of mice, brains are collected following 4% PFA perfusion for histological endpoints (experiment 3).
# [8] = 1 month bid po, 1 mg/kg Compound 1 or 2.5 mg/kg SC57461A
structure (smiles),measurement,setting,value
"O=C(O)C1CCN(Cc2ccc([C@H]3COc4ccccc4O3)cc2)CC1 [Example 1, 1-{4-[(2S)-2,3-dihydro-1,4-benzodioxin-2-yl]benzyl}piperidine-4-carboxylic acid]",CA1 neuronal gene changes,[1]; [8],many significant gene changes to neurons in the CA1 region of the hippocampus
same,DG neuronal gene changes,[1]; [8],many significant gene changes to neurons in the DG region of the hippocampus
same,Dcc gene expression in the dentate gyrus,[1]; [8],upregulation of Dcc gene expression
same,Spock3 gene expression in the dentate gyrus,[1]; [8],upregulation of Spock3 gene expression
same,"Biological Process GO terms, CA1 hippocampal neurons",[1]; long-term treatment,changes to “synaptic signaling” and “synaptic organization”
same,"Biological Process GO terms, DG hippocampal neurons",[1]; long-term treatment,changes to synapses
same,synapse density in the CA1 region of the hippocampus,[2],trends towards increasing synapse density
same,dcx hippocampal gene expression,[3]; 4 weeks of dosing,increased dcx hippocampal gene expression
same,h2d1 hippocampal gene expression,[3]; 10 days and 4 weeks of dosing,trends towards reduced h2d1 hippocampal gene expression
same,creb1 hippocampal gene expression,[3]; 10 days of dosing,increased creb1 hippocampal gene expression
same,egr1 hippocampal gene expression,[3]; 10 days of dosing,increased egr1 hippocampal gene expression
same,iba1 hippocampal gene expression,[3]; 10 days of dosing,trends towards reduced iba1 hippocampal gene expression
same,il1b hippocampal gene expression,[3]; 10 days of dosing,trends towards reduced il1b hippocampal gene expression
same,IL-2 levels in plasma,[4],significantly reduced
same,IL-7 levels in brain cortex lysate,[4],significantly reduced
same,LTB4 levels in stimulated plasma,[4],significantly reduced
same,LTB4 levels in unstimulated plasma,[4],no change in LTB4 levels detected between groups
same,body weight,"[5]; 4 weeks of dosing, first cohort",no change in body weight
same,body weight,"[5]; 4 weeks of dosing, second cohort",no change in body weight
same,body weight,"[5]; 4 weeks of dosing, third cohort",no change in body weight
same,body weight,"[5]; 10 days of dosing, first cohort",no change in body weight
same,body weight,"[5]; 10 days of dosing, second cohort",no change in body weight
same,body weight,"[5]; 10 days of dosing, third cohort",no change in body weight
same,Iba-1 percent thresholded area in the hippocampus,[6],reduction in Iba-1 percent thresholded area
same,endothelial gene expression in brain compared to SC-57461A,[7],more robust change in endothelial gene expression
same,histology of endothelial cells and neurons compared to SC-57461A,[7],more robust changes in histology
same,neuronal gene expression in brain compared to SC-57461A,[7],more robust change in neuronal gene expression
